Experimental data taken from patent US4194006A, “Therapeutic application of acetyl-d,l-carnitine and other acyl derivatives of d,l-carnitine” (priority 1977, dated 1980).
Where two headings read alike, the source gives them in different places.

Experiments:
isolated rabbit hearts [1] = test: cardiokinetic effect on isolated heart (Langendorff): contractile force after anoxia, positive inotropic effect; details: 10 minutes from interruption of anoxic period
Outline: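 Rabbit hearts were perfused Langendorff-style with oxygenated Ringer at 38.2 °C. Anoxia was applied until contractile force dropped by 80%, then the hearts were reoxygenated with or without compound. Contractile force was expressed as a percentage 10 min after the anoxic period ended.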

female rats = test: antifatigue effect: rota-rod; assay type: in vivo, rat; details: Rattus norvegicus, ip, 0.25 h; for responders at 100 mg/kg: read-out: percentage of animals staying on the rota-rod more than 180 seconds, 100 mg/kg i.p.; for responders at 200 mg/kg: read-out: percentage of animals staying on the rota-rod more than 180 seconds, 200 mg/kg i.p.; for responders at 400 mg/kg: read-out: percentage of animals staying on the rota-rod more than 180 seconds, 400 mg/kg i.p.; for responders at 600 mg/kg: read-out: percentage of animals staying on the rota-rod more than 180 seconds, 600 mg/kg i.p.; for responders at 300 mg/kg: read-out: percentage of animals staying on the rota-rod more than 180 seconds, 300 mg/kg i.p.
Outline: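 Female rats dosed intraperitoneally in saline, with controls given saline alone. Every 15 min after treatment animals were placed on a 6 cm rod rotating at 16 r.p.m. Value is the percentage of animals staying on the rod for more than 180 s, per session.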

in vivo = details: mouse, in vivo, iv
Description: The tolerance of acetyl-d,l-carnitine and of the other aforementioned acyl derivatives of the formula (I), as well as their salts were investigated by comparing the LD50 obtained by administering the compounds intravenously in mice with the LD50 obtained under the same experimental conditions by intravenous injection of d,l-carnitine.

isolated rabbit hearts [2] = test: coronary vasodilator effect: coronary flow, isolated heart (Langendorff)
Outline: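 Langendorff-perfused isolated rabbit hearts in oxygenated Ringer at 38.2° C; anoxia imposed until contractile force fell by 80%, then reoxygenated with or without test compound. Coronary flow, isometric contraction and ECG recorded by polygraph.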

isolated rat atrium = test: antiarrhythmic effect, isolated rat atrium method of M. Libonati and G. Segre; details: Rattus norvegicus
heart homogenates = test: oxygen consumption (Q O2) in heart homogenates with and without added CoA; assay type: biochemical; details: compound 10^-3 M
[3] = session 5 (every 15 minutes), * p < 0.05
[4] = session 6 (every 15 minutes), * p < 0.05
[5] = read-out: Mean percent variation versus controls: excitability (-%)
[6] = read-out: Mean percent variation versus controls: frequency max (-%)
[7] = read-out: Mean percent variation versus controls: refractory period (+%)
[8] = read-out: Mean percent variation versus controls: rheobase (+%)

## CC(=O)OC(CC(=O)[O-])C[N+](C)(C)C (racemic) [acetyl-d,l-carnitine]
Isolated rabbit hearts [1]; 1·10^-5 g/lt
  Contractile force, Mean ± S.E.: 77.5 ± 3.29%
Isolated rabbit hearts [1]; 1·10^-6 g/lt
  Contractile force, Mean ± S.E.: 32.5 ± 4.38%
Isolated rabbit hearts [1]; 5·10^-6 g/lt
  Contractile force, Mean ± S.E.: 42.9 ± 6.22%
Female rats; session 1 (every 15 minutes)
  responders at 100 mg/kg: 0%
  responders at 200 mg/kg: 0%
  responders at 400 mg/kg: 0%
  responders at 600 mg/kg: 0%
Female rats; session 2 (every 15 minutes)
  responders at 100 mg/kg: 0%
  responders at 200 mg/kg: 0%
  responders at 400 mg/kg: 10%
  responders at 600 mg/kg: 0%
Female rats; session 3 (every 15 minutes)
  responders at 100 mg/kg: 0%
  responders at 200 mg/kg: 0%
  responders at 400 mg/kg: 10%
  responders at 600 mg/kg: 10%
Female rats; session 4 (every 15 minutes)
  responders at 100 mg/kg: 0%
  responders at 200 mg/kg: 30%
  responders at 400 mg/kg: 10%
  responders at 600 mg/kg: 20%
Female rats; session 5 (every 15 minutes)
  responders at 100 mg/kg: 0%
  responders at 400 mg/kg: 40%
  responders at 600 mg/kg: 40%
Female rats; session 6 (every 15 minutes)
  responders at 100 mg/kg: 10%
Female rats; [3]
  responders at 200 mg/kg: 50%
Female rats; [4]
  responders at 200 mg/kg: 50%
  responders at 400 mg/kg: 50%
  responders at 600 mg/kg: 50%
In vivo
  LD50: ~770 mg/kg
Isolated rabbit hearts [2]; 1·10^-5 g/lt
  Coronary flow, Mean ± S.E.: 90.05 ± 7.10%
Isolated rabbit hearts [2]; 1·10^-6 g/lt
  Coronary flow, Mean ± S.E.: 75.80 ± 5.92%
Isolated rabbit hearts [2]; 5·10^-6 g/lt
  Coronary flow, Mean ± S.E.: 76.30 ± 11.9%
Isolated rat atrium; [5]
  inhibition at 0.001 µg/mL: 7.18%
  inhibition at 0.01 µg/mL: 18.6%
  inhibition at 0.1 µg/mL: 71%
Isolated rat atrium; [6]
  inhibition at 0.001 µg/mL: 6.08%
  inhibition at 0.01 µg/mL: 15%
  inhibition at 0.1 µg/mL: 23.6%
Isolated rat atrium; [7]
  activation at 0.001 µg/mL: 14.5%
  activation at 0.01 µg/mL: 16.8%
  activation at 0.1 µg/mL: 27.4%
Isolated rat atrium; [8]
  activation at 0.001 µg/mL: 3.32%
  activation at 0.01 µg/mL: 15.3%
  activation at 0.1 µg/mL: 21.7%

## C[N+](C)(C)CC(O)CC(=O)[O-] (racemic) [d,l-carnitine, γ-trimethyl amino β-hydroxy butyric acid]
Isolated rabbit hearts [1]; 1·10^-5 g/lt
  Contractile force, Mean ± S.E.: 50.9 ± 3.01%
Isolated rabbit hearts [1]; 1·10^-6 g/lt
  Contractile force, Mean ± S.E.: 28.4 ± 3.15%
Isolated rabbit hearts [1]; 5·10^-6 g/lt
  Contractile force, Mean ± S.E.: 32.2 ± 2.90%
Heart homogenates; added CoA 0
  Q O2: 7.0 μlO2 /mg protein/hr.
Heart homogenates; added CoA 2 × 10^-6 M
  Q O2: 8.4 μlO2 /mg protein/hr.
Heart homogenates; added CoA 4 × 10^-6 M
  Q O2: 19.5 μlO2 /mg protein/hr.
Heart homogenates; added CoA 8 × 10^-7 M
  Q O2: 8.1 μlO2 /mg protein/hr.
Female rats; session 1 (every 15 minutes)
  responders at 200 mg/kg: 0%
  responders at 300 mg/kg: 0%
  responders at 400 mg/kg: 0%
  responders at 600 mg/kg: 0%
Female rats; session 2 (every 15 minutes)
  responders at 200 mg/kg: 0%
  responders at 300 mg/kg: 0%
  responders at 400 mg/kg: 0%
  responders at 600 mg/kg: 16.7%
Female rats; session 3 (every 15 minutes)
  responders at 200 mg/kg: 0%
  responders at 300 mg/kg: 0%
  responders at 400 mg/kg: 8.33%
  responders at 600 mg/kg: 16.7%
Female rats; session 4 (every 15 minutes)
  responders at 200 mg/kg: 0%
  responders at 300 mg/kg: 0%
  responders at 400 mg/kg: 25%
  responders at 600 mg/kg: 16.7%
Female rats; [3]
  responders at 200 mg/kg: 0%
Female rats; [4]
  responders at 200 mg/kg: 0%
  responders at 400 mg/kg: 25%
  responders at 600 mg/kg: 25%
Female rats; session 5 (every 15 minutes)
  responders at 300 mg/kg: 10%
  responders at 400 mg/kg: 25%
  responders at 600 mg/kg: 16.7%
Female rats; session 6 (every 15 minutes)
  responders at 300 mg/kg: 10%
In vivo
  LD50: ~610 mg/kg
Isolated rabbit hearts [2]; 1·10^-5 g/lt
  Coronary flow, Mean ± S.E.: 85.18 ± 3.26%
Isolated rabbit hearts [2]; 1·10^-6 g/lt
  Coronary flow, Mean ± S.E.: 74.02 ± 6.17%
Isolated rabbit hearts [2]; 5·10^-6 g/lt
  Coronary flow, Mean ± S.E.: 77.85 ± 3.01%
Isolated rat atrium; [5]
  inhibition at 0.001 µg/mL: 12.7%
  inhibition at 0.01 µg/mL: 19.3%
  inhibition at 0.1 µg/mL: 27.1%
Isolated rat atrium; [6]
  inhibition at 0.001 µg/mL: 7.28%
  inhibition at 0.01 µg/mL: 23.6%
  inhibition at 0.1 µg/mL: 25.2%
Isolated rat atrium; [7]
  activation at 0.001 µg/mL: 18.3%
  activation at 0.01 µg/mL: 26%
  activation at 0.1 µg/mL: 31.1%
Isolated rat atrium; [8]
  activation at 0.001 µg/mL: 5.81%
  activation at 0.01 µg/mL: 9.07%
  activation at 0.1 µg/mL: 20.3%
